Where a SMILES comes first, the peptide text is derived from it. The star is where a group is joined. X1 = CC1(C)C(=CC=C2CCCC(C=CC3=[N+](CCCCCC(=O)O)c4ccccc4C3(C)C)=C2*)N(CCCCCC(=O)O)c2ccccc21
How the values were obtained:
H460 cells = format: cell-based, human; conditions: 50 μM for 6, 12, 24 h (flow cytometry), 1–100 μM 24 h (CCK-8)
Experimental: lysed in an ice bath at 1℃, 16000g for 15 minutes, the supernatant was transferred to a pre-cooled centrifuge tube in an ice bath. For each group, 20 μM (final concentration) Ac-DEVD-AMC and 100μl cell lysate were added to 1 ml Protease Assay Buffer [20 mM HEPES (pH 7.5), 10% glycerol, 2 mM DTT]. The reaction mixtures were incubated for 1 hour at 37 °C. The AMC released from Ac-DEVD-AMC was measured using a spectrofluorometer with an excitation wavelength of 380 nm and an emission wavelength range of 400-550 nm.
Flow cytometry analysis. A density of 1 × 10^5 H460 cells per well were seeded in the 6-well plates in 1640 medium which contains 10% fetal bovine serum and 1% penicillin–streptomycin, then cultured at 37 °C in a humidified atmosphere with 5% CO 2 for 16 h. Then molecules 1, 2 and 3 (50 μM) were added to each well, and the cells were incubated for additional 6 h, 12 h and 24 h, respectively. The apoptosis of the collected cells stained by Annexin V -FITC and PI (propidium iodide) was studied by […]
Cell viability assays . CCK-8 (cell counting kit-8) assay was carried out to investigate the cell viability.
H460 cells were utilized to evaluate the cytotoxicity of molecules 1, 2 and 3 by the CCK-8 assay.
Molecules 1, 2 and 3 were dispersed in 1640 medium with different concentration s such as 1, 5, 10, 30, 60 and 100 μM. The cells with the density of 5 × 10^4 cells per well were seeded in the 96 -well plates in 1640 medium containing 10% fetal bovine serum and 1% penicillin –streptomycin, then cultured at 37 °C in a humidified atmosphere with 5% CO 2 for 16 h. […]
Microplate reader was used to measure the UV -Vis absorptions of sample wells (A sample), Ablack and control wells (A control) at a test wavelength of 450 nm and a reference wavelength of 690 nm, […]
Blood circulation. […] The supernatant of the blood samples was collected by centrifugation at 10 000 rpm for 10 min , and the content of compound 1, 2 and 3 in the supernatant w ere determined using fluorescence spectrophotometric measurement. […]
3 h. […] Morphologies of liposomes were measured by Tecnai G20 electron microscope. […]

H460 tumour-bearing mice = format: in vivo, mouse; conditions: IV 14 mg/kg; for retention efficiency in tumour up to 48 h post injection: integrated fluorescence in tumour normalized to 1 h, n = 3, repeated three times
Experimental: Animal experiments were performed in accordance with the Guide for the Care and Use of Laboratory Animals and approved by the Institutional Animal Care and Use Committee (IACUC) of the National Center for Nanoscience and Technology (NCNST), China. Female Balb/c nude mice (6–8 weeks, 18–22 g) were purchased from Vital River Laboratory Animal Technology Co. Ltd. H460 cells were subcutaneously implanted into these mice on the right flank. Then the mice were randomly grouped (n = 3). When the tumour grew to a single aspect of about 0.5 cm, we injected the molecules 1, 2 and 3 intravenously in the same dose of 14 mg/kg in PBS solution, respectively. Fluorescence images were measured by a Maestro II in vivo imaging system (CRi) at 1, 2, 4, 6, 8, 12, 24, 48, 72, 96 and 120 h post injection. Further, tumours and other major organs (i.e., heart, liver, spleen, lung and kidney) were collected for ex vivo fluorescence imaging at 48 h post injection. The organ biodistribution of the 1, 2 and 3 was examined using H460 xenografts mice. The mice were sacrificed at 2, 4, 8, 12, 24 or 48 h post injection. Finally, all the major organs and tumour were collected, weighed, and homogenized (0.3 mL of lysis buffer per 100 mg of tissues). The homogeneous tissue solutions were obtained for fluorescence imaging by IVIS Spectrum CT. Known concentrations of compound 1, 2 or 3 are used to make the standard curve (concentration from 2.8 to 25.2 μg/mL), the “Predicted R-Squared” value of 0.99. Then we utilized this standard curve to measure the molecule content in each tissue. In addition, EJ xenograft tumour mice model was built, as above described, to validate the generality of the strategy.
Supplementary Figure 31∣ Representative NIR fluorescence images of H460 tumour-bearing mice after intravenous administration with molecules 1, 2 and 3 (14 mg/kg, n = 3). Images were acquired at 1 h, 4 h, 12 h, 24 h 48 h, 72 h, 96 h and 120 h post injection (p.i.). The yellow circles marked the same size of the tumour region.
(1 picture or pasted object on this page, not shown here)
Supplementary Figure 32∣ Representative NIR fluorescence images o f H460 tumour-bearing mice after intravenous administrat ed with molecules 1 (14 mg/kg, n = 3) in three groups (In order to test the repeatability of the results, we chose different batches of mice to repeat trials . They were named 1-group, 2-group and 3-group, respectively.). Images were acquired at 1 h, 4 h, 12 h, 24 h 48 h and 72 h post injection (p.i.). All data were obtained by n ormalized fluorescence intensity in tumour. Data are presented as the mean ± s.d. (n= 3).

Row | SMILES | apoptotic cell death (flow cytometry and cell viability assays) (H460 cells) | retained tumour signal on the fifth day relative to molecules 2 and 3 (H460 tumour-bearing mice) [fold] | retention efficiency in tumour up to 48 h post injection (H460 tumour-bearing mice) | fluorescence signal retained in tumour on the fifth day (H460 tumour-bearing mice; normalized fluorescence intensity in tumour)
1 | CC[C@H](C)[C@H](NC(=O)[C@@H]1CCCN1C(=O)[C@@H](NC(=O)[C@H](C)N)C(C)C)C(=O)N[C@@H](C)C(=O)N[C@@H](CCC(N)=O)C(=O)N[C@@H](CCCCN)C(=O)N[C@@H](CC(=O)O)C(=O)N[C@@H](CCC(=O)O)C(=O)N[C@H](C(=O)N[C@@H](CC(=O)O)C(=O)N[C@@H](CCCCN)C(=O)N[C@@H](CC(C)C)C(=O)N[C@H](C(=O)N[C@@H](Cc1ccccc1)C(=O)N[C@@H](Cc1ccccc1)C(=O)N[C@@H](C)C(=O)N[C@@H](CCC(=O)O)C(=O)N[C@@H](CSC1=C(C=CC2=[N+](CCCCCC(=O)O)c3ccccc3C2(C)C)CCCC1=CC=C1N(CCCCCC(=O)O)c2ccccc2C1(C)C)C(=O)NCC(=O)O)C(C)C)C(C)C [molecule 1] (H-AVPIAQKDEVDKLVFFAEC(X1)G-OH) | No apoptosis was observed | ~2.5 | approximately 22.0% | over 16.0%
2 | CC[C@H](C)[C@H](NC(=O)[C@@H]1CCCN1C(=O)[C@@H](NC(=O)[C@H](C)N)C(C)C)C(=O)N[C@@H](C)C(=O)N[C@@H](CCC(N)=O)C(=O)N[C@@H](CCCCN)C(=O)N[C@@H](CC(=O)O)C(=O)N[C@@H](CCC(=O)O)C(=O)N[C@H](C(=O)N[C@@H](CC(=O)O)C(=O)N[C@@H](CCC(=O)O)C(=O)N[C@@H](CSC1=C(C=CC2=[N+](CCCCCC(=O)O)c3ccccc3C2(C)C)CCCC1=CC=C1N(CCCCCC(=O)O)c2ccccc2C1(C)C)C(=O)NCC(=O)O)C(C)C [molecule 3] (H-AVPIAQKDEVDEC(X1)G-OH; N-terminus assumed) | No apoptosis was observed | – | less than 10.0% | –
3 | CSCC[C@H](N)C(=O)N[C@@H](CC(=O)O)C(=O)N[C@@H](CCC(=O)O)C(=O)N[C@@H](CCCCN)C(=O)N[C@@H](C)C(=O)N[C@@H](CCC(N)=O)C(=O)N[C@@H](CCCCN)C(=O)N[C@@H](CC(=O)O)C(=O)N[C@@H](CCC(=O)O)C(=O)N[C@H](C(=O)N[C@@H](CC(=O)O)C(=O)N[C@@H](CCCCN)C(=O)N[C@@H](CC(C)C)C(=O)N[C@H](C(=O)N[C@@H](Cc1ccccc1)C(=O)N[C@@H](Cc1ccccc1)C(=O)N[C@@H](C)C(=O)N[C@@H](CCC(=O)O)C(=O)N[C@@H](CSC1=C(C=CC2=[N+](CCCCCC(=O)O)c3ccccc3C2(C)C)CCCC1=CC=C1N(CCCCCC(=O)O)c2ccccc2C1(C)C)C(=O)NCC(=O)O)C(C)C)C(C)C [molecule 2] (H-MDEKAQKDEVDKLVFFAEC(X1)G-OH; N-terminus assumed) | No apoptosis was observed | – | less than 10.0% | –
